Literature values, collected in publication PMC7693160 (Pharmaceutics, 2020).
Several values for one entry are separate records, joined by “and”; a condition that tells them apart may be missing. Equal entries are not always repeated. Where two headings read alike, the source gives them in different places. Marks after values point to notes of the source that are not given here.

Experiments:
[1] = system: tooth pulp-evoked potentials (TPEP) amplitude and subjective pain intensity rating; details: cited from earlier work; for Rmax obs: 100 mg tablet; for TRmax obs: median
UGT1A9 = details: Recombinant UGT; cited from earlier work
[2] = cited from earlier work
[3] = cited from earlier work; remark: listed apart in the source
[4] = 1st value, ref Lee et al. (2003) as printed
[5] = 2nd value, ref Lee et al. (2015) as printed
[6] = po sol s.d. 40 mg, CYP2C9 1*/1*
[7] = po sol s.d. 40 mg, CYP2C9 1*/3*
[8] = po tab (Froben) s.d. 100 mg, ref 4
[9] = po tab (Froben) s.d. 100 mg, ref 38
[10] = po tab s.d. 50 mg, CYP2C9 1*/1*
[11] = po tab s.d. 50 mg, CYP2C9 1*/1*, median
[12] = po tab s.d. 50 mg, CYP2C9 1*/2*
[13] = po tab s.d. 50 mg, CYP2C9 1*/3*
[14] = po tab s.d. 50 mg, CYP2C9 1*/3*, median
[15] = po tab s.d. 50 mg, CYP2C9 3*/3*, individual values (n = 2)

CC(C(=O)O)c1ccc(-c2ccccc2)c(F)c1 (stereo not drawn) [flurbiprofen]
Rmax obs ([1]; Pain intensity reduction): 53.1%
AUCE obs ([1]; Pain intensity reduction): 224.2 %·h
TRmax obs ([1]; Pain intensity reduction): 4.00 h
Rmax obs ([1]; TPEP amplitude reduction): 47.3%
AUCE obs ([1]; TPEP amplitude reduction): 224.2 %·h
TRmax obs ([1]; TPEP amplitude reduction): 4.00 h
Km (UGT1A9): 182 µM
UGT1A9-Vmax (UGT1A9): 3.286 pmol/min/mg protein
Blood/plasma ratio [2]: 0.55
Fraction unbound in plasma [2]: 0.01
bound to plasma proteins [2]: > 99%
observed decrease in CYP2C9 1*/3* clearance [3, 4]: about 37%
observed increase in AUC, CYP2C9 1*/3* [3, 4]: 1.62 fold
observed decrease in CYP2C9 1*/3* clearance [3, 5]: ~44%
observed increase in AUC, CYP2C9 1*/3* [3, 5]: 1.74 fold
observed decrease in clearance ([3]; CYP2C9 1*/2* individuals): about 27%
observed decrease in clearance ([3]; CYP2C9 1*/3* individuals): ~40%
Fox ([3]; PBPK input): 0.71
Clrenal [3]: 0.066 L/h
steady-state volume of distribution (Vss) [3]: around 0.1 L/kg
fmCYP2C9 ([3]; contribution to overall metabolic clearance): 0.71
CYP2C9 metabolic contribution ([3]; human, in vivo): at least 71%
absolute bioavailability ([3]; human, in vivo): ~ 95%
eliminated through metabolic oxidation to 4-hydroxy FLU ([3]; human, in vivo): > 71 % of the dose
AUCinf obs ([3]; iv s.d. 50 mg): 35.2 mg·h/L
fmCYP2C9 ([3]; metabolism by polymorphic CYP2C9): ≥ 0.71
dose excreted into urine as acyl glucuronide of (R)-FLU ([3]; oral racemic FLU): 8.4%
dose excreted into urine as acyl glucuronide of (S)-FLU ([3]; oral racemic FLU): 7.3%
AUCinf obs ([3]; po orod s.d. 150 mg): 129.8 mg·h/L
Cmax obs ([3]; po orod s.d. 150 mg): 16.8 mg/L
AUCinf obs [3, 6]: 29.3 mg·h/L
CL/F obs [3, 6]: 1.39 L/h
Cmax obs [3, 6]: 5.54 mg/L
AUCinf obs [3, 7]: 47.6 mg·h/L
CL/F obs [3, 7]: 0.88 L/h
Cmax obs [3, 7]: 6.93 mg/L
AUCinf obs ([3]; po sol s.d. 67.9 mg): 55.1 mg·h/L
Cmax obs ([3]; po sol s.d. 67.9 mg): 10.8 mg/L
AUCinf obs ([3]; po sol s.d. 100 mg): 82.7 mg·h/L
CL/F obs ([3]; po sol s.d. 100 mg): 1.28 L/h
Cmax obs ([3]; po sol s.d. 100 mg): 14.2 mg/L
AUCinf obs ([3]; po tab (Ansaid) s.d. 100 mg): 80.5 mg·h/L
Cmax obs ([3]; po tab (Ansaid) s.d. 100 mg): 12.8 mg/L
AUCinf obs ([3]; po tab (Ansaid) s.d. 200 mg): 161.3 mg·h/L
CL/F obs ([3]; po tab (Ansaid) s.d. 200 mg): 1.32 L/h
Cmax obs ([3]; po tab (Ansaid) s.d. 200 mg): 21.4 mg/L
AUCinf obs ([3]; po tab (Ansaid) s.d. 300 mg): 233.9 mg·h/L
CL/F obs ([3]; po tab (Ansaid) s.d. 300 mg): 1.36 L/h
Cmax obs ([3]; po tab (Ansaid) s.d. 300 mg): 29.5 mg/L
AUCinf obs [3, 8]: 87.8 mg·h/L
CL/F obs [3, 8]: 1.27 L/h
Cmax obs [3, 8]: 13.2 mg/L
AUCinf obs [3, 9]: 82.3 mg·h/L
Cmax obs [3, 9]: 13.3 mg/L
AUCinf obs [3, 10]: 29.4 mg·h/L
CL/F obs [3, 10]: 1.77 L/h
Cmax obs [3, 10]: 5.38 mg/L
AUCinf obs [3, 11]: 30.8^a mg/L·h
CL/F obs [3, 11]: 1.6 ^a L/h
Cmax obs [3, 11]: 6.1 ^a mg/L
AUCinf obs [3, 12]: 40.7 mg·h/L
CL/F obs [3, 12]: 1.30 L/h
Cmax obs [3, 12]: 4.55 mg/L
AUCinf obs [3, 13]: 51.1 mg·h/L
CL/F obs [3, 13]: 1.00 L/h
Cmax obs [3, 13]: 5.42 mg/L
AUCinf obs [3, 14]: 53.7 ^a mg/L·h
CL/F obs [3, 14]: 0.9 ^a L/h
Cmax obs [3, 14]: 8.9 ^a mg/L
AUCinf obs [3, 15]: 85.8 mg·h/L and 119 mg·h/L
CL/F obs [3, 15]: 0.6 L/h and 0.4 L/h
Cmax obs [3, 15]: 8 mg/L and 9.4 mg/L
AUCinf obs ([3]; po tab s.d. 100 mg): 67.7 mg·h/L
CL/F obs ([3]; po tab s.d. 100 mg): 1.52 L/h
Cmax obs ([3]; po tab s.d. 100 mg): 12.9 mg/L
AUCinf obs ([3]; po tab s.d. 150 mg): 124.3 mg·h/L
Cmax obs ([3]; po tab s.d. 150 mg): 15.2 mg/L
fraction absorbed (fa) ([3]; small intestine): greater than 95%
